From patent US6979686B1, “Substituted pyrazoles as p38 kinase inhibitors” (Pharmacia Corporation, priority 2001, dated 2005)
pIC50: −log10 of the molar value. Read-outs that look alike come from different tables or passages of the source. Each block holds one compound with its values, some of them ahead of it.

Target: T1, human p38 kinase alpha (Homo sapiens, UniProt Q16539)
T1 construct: GST (N, cleaved yes); made in house; host or cells: E. coli DH10B
Assay: p38 kinase in vitro assay, phosphorylation of biotinylated PHAS-I with 32P-ATP
Format: biochemical
Conditions: for inhibition at 1 µM: read-out: P38 alpha kinase % inhib @ conc.
Experimental: The coding region of the human p38a cDNA was obtained by PCR-amplification from RNA isolated from the human monocyte cell line THP.1. […] Random primer, dNTP's and Superscript™ reagents were all purchased from Life-Technologies, Gaithersburg, Mass. The reaction was incubated at 42° C. for 1 hour. Amplification of p38 cDNA was performed by aliquoting 5 μl of the reverse transcriptase reaction into a 100 μl PCR reaction containing the following: 80 μl dH2O, 2 μl 50 mM DNTP's, 1 μl each of forward and reverse primers (50 pmol/μl), 10 μl of 10×buffer and 1 μl Expand™ polymerase (Boehringer Mannheim). The PCR primers incorporated BamHI sites onto the 5′ and 3′ end of the amplified fragment, and were purchased from Genosys. […] The PCR amplification was carried out in a DNA Thermal Cycler (Perkin Elmer) by repeating 30 cycles of 94° C. for 1 minute, 60° C. for 1 minute and 68° C. for 2 minutes. After amplification, excess primers and unincorporated dNTP's were removed from the amplified fragment with a Wizard™ PCR prep (Promega) and digested with BamHI (New England Biolabs). The BamHI digested fragment was ligated into BamHI digested PGEX 2T plasmid DNA (PharmaciaBiotech) using T-4 DNA ligase (New England Biolabs) as described by T. Maniatis, Molecular Cloning: A Laboratory Manual, 2nd ed. […] The ligation reaction was transformed into chemically competent E. coli DH10B cells purchased from Life-Technologies following the manufacturer's instructions. Plasmid DNA was isolated from the resulting bacterial colonies using a Promega Wizard™ miniprep kit.
Expression of Human p38a:
Overnight cultures were grown in-Luria Broth (LB) containing […] ampicillin. The next day, 500 ml of fresh LB was inoculated with 10 ml of overnight culture, and grown in a 2 liter flask at 37° C. with constant shaking until the culture reached an absorbance of 0.8 at 600 nm. Expression of the fusion protein was induced by addition of isopropyl b-D-thiogalactosidse (IPTG) to a final concentration of 0.05 mM. The cultures were shaken for three hours at room temperature, and the cells were harvested by centrifugation. The cell pellets were stored frozen until protein purification.
Purification of p38 Kinase-α:
All chemicals were from Sigma Chemical Co. unless noted. Twenty grams of E. coli cell pellet collected from five 1 L shake flask fermentations was resuspended in a volume of PBS (140 mM NaCl, 2.7 mM KCl, 10 mM Na2HPO4, 1.8 mM KH2PO4, pH 7.3) up to 200 ml. The cell suspension was adjusted to 5 mM DTT with 2 M DTT and then split equally into five 50 ml Falcon conical tubes. The cells were sonnicated (Ultrasonics model W375) with a 1 cm probe for 3×1 minutes (pulsed) on ice. Lysed cell material was removed by centrifugation (12,000×g, 15 minutes) and the clarified supernatant applied to glutathione-sepharose resin (Pharmacia).
Glutathione-sepharose Affinity Chromatography:
The resin was collected by centrifugation (600×g, 5 min) and washed with 2×150 ml PBS/1% Triton X-100, followed by 4×40 ml PBS. To cleave the p38 kinase from the GST-p38 fusion protein, the glutathione-sepharose resin was resuspended in 6 ml PBS containing 250 units thrombin protease (Pharmacia, specific activity>7500 units/mg) and mixed gently for 4 hours at room temperature. The glutathione-sepharose resin was removed by centrifugation (600×g, 5 min) and washed 2×6 ml with PBS. The PBS wash fractions and digest supernatant containing p38 kinase protein were pooled and adjusted to 0.3 mM PMSF.
Mono O Anion Exchange Chromatography:
The thrombin-cleaved p38 kinase was further purified by FPLC-anion exchange chromatography.

[1] = in vitro P38-alpha kinase inhibition, read-out: P38 alpha kinase IC50
[2] = in vitro P38-alpha kinase, read-out: P38 alpha kinase IC50
[3] = Table 8, 1% DMSO, read-out: p38α Kinase Assay IC50

T1 sequence (Q16539 whole entry): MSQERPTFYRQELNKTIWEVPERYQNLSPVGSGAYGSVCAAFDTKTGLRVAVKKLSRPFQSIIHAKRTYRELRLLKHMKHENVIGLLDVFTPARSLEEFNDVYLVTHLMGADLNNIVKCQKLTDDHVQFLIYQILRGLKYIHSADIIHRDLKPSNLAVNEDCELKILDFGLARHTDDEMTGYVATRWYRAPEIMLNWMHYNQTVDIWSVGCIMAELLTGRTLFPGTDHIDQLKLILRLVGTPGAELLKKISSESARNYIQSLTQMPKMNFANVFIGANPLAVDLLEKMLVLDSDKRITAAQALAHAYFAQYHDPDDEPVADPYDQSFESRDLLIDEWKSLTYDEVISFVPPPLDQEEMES

P38 alpha kinase IC50, uM or % inhib @ conc. (uM): % inhib (@ 10.0 uM): 60.0% @
Compound: Cc1c(-c2ccncc2)c(-c2ccc(F)cc2)nn1CC(=O)N(C)CC(N)=O [Example B-2400]

P38 alpha kinase % inhib @ conc. (@ 1.0 uM): 76.0% @
Compound: CN(C(=O)NCCCc1[nH]nc(-c2ccc(F)cc2)c1-c1ccncc1)c1ccccc1 [Example B-1214]

pIC50 [1]: > 7.00
Compound: CCCCS(=O)(=O)NC(Cc1ccccc1)c1[nH]nc(-c2ccc(F)cc2)c1-c1ccncc1 (stereo not shown) [Example B-0761]

P38 alpha kinase % inhib @ conc. (@ 10.0 uM): 73.0% @
Compound: Cc1c(-c2ccncc2)c(-c2ccc(F)cc2)nn1CC(=O)NC1CCN(Cc2ccccc2)C1 (stereo not shown) [Example B-2338]

pIC50 [1]: 5.82
Compound: O=S(=O)(NC(Cc1ccccc1)c1[nH]nc(-c2ccc(F)cc2)c1-c1ccncc1)C(F)(F)F (stereo not shown) [Example B-0758]

pIC50 [1]: 6.38
Compound: CC(NC(=O)c1c(F)cccc1C(F)(F)F)c1[nH]nc(-c2ccc(F)cc2)c1-c1ccncc1 (stereo not shown) [Example B-0686]

P38 alpha kinase IC50, uM or % inhib @ conc. (uM): % inhib (@ 10.0 uM): 85.0% @
Compound: Cc1c(-c2ccncc2)c(-c2ccc(F)cc2)nn1CC(=O)Nc1ccccc1 [Example B-2416]

pIC50 [1]: 5.83
Compound: O=C(NC(Cc1ccccc1)c1[nH]nc(-c2ccc(F)cc2)c1-c1ccncc1)c1ccc(F)cc1 (stereo not shown) [Example B-0832]

pIC50 [1]: > 7.00
Compound: Cc1cccc(Cl)c1S(=O)(=O)N[C@H](C)c1[nH]nc(-c2ccc(F)cc2)c1-c1ccncc1 [Example B-0467]

inhibition at 1 µM (@ 1.0 uM): 60%
Compound: O=C(NCc1[nH]nc(-c2ccc(F)cc2)c1-c1ccncc1)C(=O)c1c[nH]c2ccccc12 [Example B-0018]

pIC50 [2]: 7.72
Compound: O=C(NCCCc1[nH]nc(-c2ccc(F)cc2)c1-c1ccncc1)c1cc(F)c(F)cc1F [Example B-1350]

pIC50 [1]: 6.04
Compound: C=CCNC(=O)NC(Cc1ccccc1)c1[nH]nc(-c2ccc(F)cc2)c1-c1ccncc1 (stereo not shown) [Example B-0734]

pIC50 [1]: 7.05
Compound: CCOC(=O)NC(C)c1[nH]nc(-c2ccc(F)cc2)c1-c1ccncc1 (stereo not shown) [Example B-0603]

pIC50 [1]: 6.39
Compound: O=S(=O)(NCCc1[nH]nc(-c2ccc(F)cc2)c1-c1ccncc1)c1ccc(S(=O)(=O)c2ccccc2)s1 [Example B-1116]

P38 alpha kinase % inhib @ conc. (uM) (@ 1.0 uM): 47.0% @
Compound: CSc1cccc(NC(=O)NCCc2[nH]nc(-c3ccc(F)cc3)c2-c2ccncc2)c1 [Example B-0933]

P38 alpha kinase % inhib @ conc. (@ 10.0 uM): 38.0% @
Compound: Cc1c(-c2ccncc2)c(-c2ccc(F)cc2)nn1CC(=O)NC1CCC(C(C)(C)C)CC1 (stereo not shown) [Example B-2350]

inhibition at 1 µM (@ 1.0 uM): 92%
Compound: CC(C)c1cc(C(C)C)c(C(=O)NCc2[nH]nc(-c3ccc(F)cc3)c2-c2ccncc2)c(C(C)C)c1 [Example B-0030]

P38 alpha kinase IC50, uM or % inhib @ conc. (uM): % inhib (@ 10.0 uM): 84.0% @
Compound: Cc1ccc(C)c(C(=O)c2ccccc2NC(=O)Cn2nc(-c3ccc(F)cc3)c(-c3ccncc3)c2C)c1 [Example B-2443]

pIC50 [2]: 6.00
Compound: Cc1c(-c2ccncc2)c(-c2ccc(F)cc2)nn1CC(=O)NCC(=O)c1ccccc1 [Example B-2317]

pIC50 [1]: > 7.00
Compound: CC(NS(=O)(=O)Cc1ccccc1[N+](=O)[O-])c1[nH]nc(-c2ccc(F)cc2)c1-c1ccncc1 (stereo not shown) [Example B-0619]

P38 alpha kinase % inhib @ conc. (@ 1.0 uM): 74.0% @
Compound: COc1ccc(S(=O)(=O)NCCCc2[nH]nc(-c3ccc(F)cc3)c2-c2ccncc2)cc1OC [Example B-1205]

pIC50 [1]: > 7.00
Compound: Cc1ccc(C)c(S(=O)(=O)NCCc2[nH]nc(-c3ccc(F)cc3)c2-c2ccncc2)c1 [Example B-1096]

P38 alpha kinase IC50, uM or % inhib @ conc. (uM): % inhib (@ 10.0 uM): 90.0% @
Compound: Cc1c(-c2ccncc2)c(-c2ccc(F)cc2)nn1CC(=O)Nc1ccccc1Cl [Example B-2422]

pIC50 [1]: 5.88
Compound: O=C(NC(Cc1ccccc1)c1[nH]nc(-c2ccc(F)cc2)c1-c1ccncc1)c1ccncc1 (stereo not shown) [Example B-0822]

pIC50 [3]: 7.92
Compound: Clc1ccc(-c2[nH]nc(N3CCNCC3)c2-c2ccncc2)cc1 [Example A-328, 1-[5-(4-chlorophenyl)-4-(4-pyridinyl)-1H-pyrazol-3-yl]piperazine]

P38 alpha kinase % inhib @ conc. (@ 10.0 uM): 70.0% @
Compound: CCCC(=O)COC(=O)NCc1[nH]nc(-c2ccc(F)cc2)c1-c1ccncc1 [Example B-0177]

P38 alpha kinase % inhib @ conc. (uM) (@ 1.0 uM): 87.0% @
Compound: O=S(=O)(NCCc1[nH]nc(-c2ccc(F)cc2)c1-c1ccncc1)c1cccs1 [Example B-1026]

pIC50 [1]: 5.63
Compound: CC(NC(=O)c1cc(F)c(F)cc1F)c1[nH]nc(-c2ccc(F)cc2)c1-c1ccncc1 (stereo not shown) [Example B-0698]

P38 alpha kinase % inhib @ conc. (@ 10.0 uM): 35.0% @
Compound: COCCN(C)C(=O)Cn1nc(-c2ccc(F)cc2)c(-c2ccncc2)c1C [Example B-2374]

P38 alpha kinase % inhib @ conc. (uM) (@ 1.0 uM): 88.0% @
Compound: O=S(=O)(NCCc1[nH]nc(-c2ccc(F)cc2)c1-c1ccncc1)c1ccc(F)cc1F [Example B-1018]

pIC50 [3]: 6.57
Compound: CS(=O)(=O)N1CCN(c2n[nH]c(-c3ccc(Cl)cc3)c2-c2ccncc2)CC1 [Example A-320, 1-[5-(4-chlorophenyl)-4-(4-pyridinyl)-1H-pyrazol-3-yl]-4-(methylsulfonyl)piperazine, monohydrate]

P38 alpha kinase % inhib @ conc. (uM) (@ 1.0 uM): 72.0% @
Compound: O=C(NCCCc1[nH]nc(-c2ccc(F)cc2)c1-c1ccncc1)c1cccnc1 [Example B-1182]

P38 alpha kinase % inhib @ conc. (@ 10.0 uM): 47.0% @
Compound: COC(=O)[C@H](CC(C)C)NC(=O)Cn1nc(-c2ccc(F)cc2)c(-c2ccncc2)c1C [Example B-2364]

pIC50 [1]: 6.77
Compound: CC(NS(=O)(=O)c1ccc(CNC(=O)c2ccccc2)s1)c1[nH]nc(-c2ccc(F)cc2)c1-c1ccncc1 (stereo not shown) [Example B-0657]

pIC50 [1]: 6.20
Compound: O=C(NC(Cc1ccccc1)c1[nH]nc(-c2ccc(F)cc2)c1-c1ccncc1)c1ccno1 (stereo not shown) [Example B-0840]

pIC50 [2]: > 7.00
Compound: O=C(c1cc(F)cc(C(F)(F)F)c1)N1CCC(c2[nH]nc(-c3ccc(F)cc3)c2-c2ccncc2)CC1 [Example B-1409]

pIC50 [2]: 7.28
Compound: O=C(NCCCc1[nH]nc(-c2ccc(F)cc2)c1-c1ccncc1)c1ccc(F)c(F)c1 [Example B-1330]

P38 alpha kinase IC50, uM or % inhib @ conc. (uM): % inhib (@ 10.0 uM): 86.0% @
Compound: Cc1c(-c2ccncc2)c(-c2ccc(F)cc2)nn1CC(=O)Nc1ccccc1C(=O)NC(C)c1ccccc1 (stereo not shown) [Example B-2456]

pIC50 [2]: 6.27
Compound: COc1cc(CNC(=O)Cn2nc(-c3ccc(F)cc3)c(-c3ccncc3)c2C)cc(OC)c1 [Example B-2305]

pIC50 [2]: 7.48
Compound: O=C(c1c(F)cccc1F)N1CCC(c2[nH]nc(-c3ccc(F)cc3)c2-c2ccncc2)CC1 [Example B-1401]

pIC50 [1]: > 7.00
Compound: O=S(=O)(NCCc1[nH]nc(-c2ccc(F)cc2)c1-c1ccncc1)c1ccccc1Br [Example B-1082]

P38 alpha kinase % inhib @ conc. (@ 1.0 uM): 87.0% @
Compound: CC(C)(C)C(=O)NCCCc1[nH]nc(-c2ccc(F)cc2)c1-c1ccncc1 [Example B-1229]

P38 alpha kinase % inhib @ conc. (uM) (@ 1.0 uM): 92.0% @
Compound: COc1cccc(CC(=O)NCCCc2[nH]nc(-c3ccc(F)cc3)c2-c2ccncc2)c1 [Example B-1178]

pIC50 [2]: 7.60
Compound: O=C(c1ccc(F)c(F)c1)N1CCC(c2[nH]nc(-c3ccc(F)cc3)c2-c2ccncc2)CC1 [Example B-1414]

pIC50 [2]: 5.62
Compound: O=S(=O)(c1ccc(Cl)c(Cl)c1)N1CCC(c2[nH]nc(-c3ccc(F)cc3)c2-c2ccncc2)CC1 [Example B-1452]

pIC50 [2]: 6.40
Compound: O=C(NCCCc1[nH]nc(-c2ccc(F)cc2)c1-c1ccncc1)c1ccc(C(F)(F)F)cc1F [Example B-1337]

pIC50 [1]: 6.39
Compound: C=CCOC(=O)NC(C)c1[nH]nc(-c2ccc(F)cc2)c1-c1ccncc1 (stereo not shown) [Example B-0534]

P38 alpha kinase % inhib @ conc. (uM) (@ 1.0 uM): 77.0% @
Compound: CC(C)S(=O)(=O)NCCc1[nH]nc(-c2ccc(F)cc2)c1-c1ccncc1 [Example B-1015]

P38 alpha kinase % inhib @ conc. (@ 10.0 uM): 75.0% @
Compound: Cc1c(-c2ccncc2)c(-c2ccc(F)cc2)nn1CC(=O)NC1CC1 [Example B-2341]
